Data reported in PubChem BioAssay AID179 (DTP/NCI, 2004).
Activity calls are given as the source filed them.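 How the source made its calls: active means compounds giving half or more protection of infected cells from virus-caused growth loss, again on retest; inactive means the rest.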

Test system: CEM cells HIV-1 protection, formazan growth assay
Test: NCI AIDS Antiviral Assay
Conditions: for IC50: measured here: growth of uninfected CEM cells
Outline: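 Steps: treat uninfected and HIV-1-infected human CEM cells at five drug levels; quantify growth by soluble formazan; retest any compound reaching 50% protection; classify actives from the retest.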

Structure (SMILES)	EC50	IC50	outcome
Cn1c2ccccc2c2nc3ccccc3nc21	> 22.4 µM	> 22.4 µM	–
COc1ccc2cc(C(=O)O)ccc2c1OC	> 200 µM	> 200 µM	–
O=[N+]([O-])c1ccc2c(c1)NP(=S)(Oc1ccccc1)N2 (stereo not given)	> 603 µM	81.3 µM	–
CCCCCCCC(=O)OCC(C[As](=O)(O)O)OC(=O)CCCCCCC (stereo not given)	> 200 µM	15.1 µM	–
CN(C)CCCNC(=O)c1cc(NC(=O)c2cc(NC(=O)c3cc(N4C(=O)c5ccccc5C4=O)cn3C)cn2C)cn1C	> 81.3 µM	57.5 µM	–
COc1ccc2c(ccc3nc(CCC(=O)O)n(C)c(=O)c32)c1	> 794 µM	229 µM	–
O=C1C=CC=C/C1=C1\N=C(c2ccccc2OCC(=O)c2ccc(Br)cc2)SS1	> 50.1 µM	19.5 µM	–
C=[CH][Sn]([CH]=C)([S]c1cccc2cccnc12)[S]c1cccc2cccnc12	–	–	inactive
O=C(Sc1sc(=S)sc1SC(=O)c1ccccc1)c1ccccc1	> 17.8 µM	> 17.8 µM	–
O=S(=O)(SC1=NCCN1)c1cccc2ccccc12	> 81.3 µM	37.2 µM	–
COc1ccc(NC(=S)N/N=C/c2c(C)n(C)n(-c3ccccc3)c2=O)cc1	> 200 µM	115 µM	–
CN1CCN(CCSSCCN2CCN(C)CC2)CC1	> 200 µM	> 200 µM	–
CCCCNC(=O)Sc1ccccc1C(=O)NCCC(N)=O	0.933 µM	117 µM	–
CN(C)c1cc(CNCCSC(c2ccccc2)(c2ccccc2)c2ccccc2)nc(CNCCSC(c2ccccc2)(c2ccccc2)c2ccccc2)c1	> 200 µM	3.02 µM	–
CC(SC(=S)Nc1cccc(F)c1)C(=O)O (stereo not given)	–	–	inactive
C/C=C/C(=O)[O-].C/C=C/C(=O)[O-].N.N.N.N.[Co+3].[O-][Cl+3]([O-])([O-])[O-]	–	–	inactive
COc1cc(OC)c(C(=O)[O][Sn]([c]2ccccc2)([c]2ccccc2)[c]2ccccc2)cc1OC	> 200 µM	0.0631 µM	–
C[C@@H]1S[C@H](c2c(F)cccc2Cl)n2c1nc1ccccc12	3.55 µM	12.9 µM	–
CCOC(=O)C1Oc2ccc([N+](=O)[O-])cc2C1(C)O (stereo not given)	–	–	inactive
CN1C2C=CC(=O)C1C1C(=O)N(c3ccccc3)C(=O)C12 (stereo not given)	> 891 µM	5.25 µM	–
CC(=O)[O-].CC(=O)[O-].O=C(N/N=C/c1cc(Cl)cc(Cl)c1[OH2+])c1ccncc1.[Zn+2]	–	–	inactive
O=C(O)Cc1ccc(-n2nnc3c(=O)[nH][nH]c(=O)c32)cc1	> 200 µM	> 200 µM	–
CCCCCCCCCCCCCCCCOC(=O)C(C(=O)OCCCCCCCCCCCCCCCC)[N+](C)(C)CCOC(C)=O	–	–	inactive

Structure (SMILES)	EC50	IC50	outcome
Clc1cc2nnn(C3CCCCO3)c2cc1Cl (stereo not given)	> 200 µM	> 200 µM	–
CC1(C)N=C(c2ccccc2)C2(c3ccccc3)N1C2(C)C (stereo not given)	> 234 µM	224 µM	–
O=c1c(C2=NCCC2)c(-c2ccc[nH]2)[nH]n1-c1ccccc1	> 200 µM	> 200 µM	–
CCOC(=O)c1cc(C2(O)CCN(Cc3ccccc3)C2=O)c(-c2cc(C)no2)[nH]1 (stereo not given)	> 200 µM	38.9 µM	–
Nc1ccc(S(=O)(=O)Nc2nc3ccccc3nc2N2CCCCCC2)cc1	> 200 µM	33.1 µM	–
Cc1cc(C)c(S(=O)(=O)ONC(=O)OC(C)(C)C)c(C)c1	–	–	inactive
CCOC(=O)C1C(=O)CC2c3nc4ccccc4cc3CN2C1=O (stereo not given)	> 10 µM	> 10 µM	–
CCN1CN(c2ccccc2)C2(CCN(CCCSc3ccc(F)cc3)CC2)C1=O	> 200 µM	10 µM	–
Cc1cccc(N2C(=O)C3c4[nH]c5ccccc5c4C4CCC(C(C)(C)C)CC4C3C2=O)c1 (stereo not given)	> 200 µM	38.9 µM	–
CC(=O)Nc1sc([N+](=O)[O-])cc1S(=O)(=O)c1ccc(Cl)cc1	> 200 µM	1.48 µM	–
N#Cc1c(=O)n(-c2ccccc2)c(O)c2c(N)n[nH]c12	> 200 µM	89.1 µM	–
N#CCCN(C1=NN(C(=O)CC(=O)Nc2ccccc2Cl)C(c2ccccc2)C1)c1ccc(Cl)cc1 (stereo not given)	> 3.89 µM	> 3.89 µM	–
O=S1Nc2c(Cl)cc(Cl)c3c(Cl)cc(Cl)c(c23)N1	–	–	inactive
COC(=O)C1=C(C(=O)OC)C2CCC1CC2=O (stereo not given)	> 200 µM	44.7 µM	–
Cc1csc2[nH]c3ccccc3[n+]12	–	–	inactive
COI1NC(=O)c2ccccc21	17.4 µM	295 µM	–
COc1ccc([C@@]23Oc4cc(OC)cc(OC)c4[C@]2(O)[C@H](O)[C@H](C(=O)N(C)C)[C@H]3c2ccccc2)cc1	> 200 µM	0.0631 µM	–
O=[N+]([O-])C(C(Cl)=C(Cl)Cl)=C(N(Cc1ccccc1)Cc1ccccc1)N(Cc1ccccc1)Cc1ccccc1	> 0.2 µM	> 0.2 µM	–
CC1(C)C(=O)N2C(=O)CC(=O)N2C1=O	> 457 µM	> 457 µM	–
O=C1OC[C@@H]2[C@@H](O)CCCCCN12	> 200 µM	> 200 µM	–
O=[N+]([O-])c1ccc(C=C2C=CN(CCO)C=C2)cc1	> 200 µM	> 200 µM	–
COc1ccc(N2C=Nn3c(nc4sc5c(c4c3=O)CCCC5)C2)cc1	> 50.1 µM	> 50.1 µM	–
CC(=O)[CH-]C(C)=O.CC(=O)[CH-]C(C)=O.COc1cc2cc(C(=O)N3CC(CCl)c4ccc(NCCN)cc43)[nH]c2c(OC)c1OC.[Cr+5].[O-][Cl+3]([O-])([O-])[O-] (stereo not given)	> 1 µM	0.479 µM	–

Structure (SMILES)	EC50	IC50	outcome
O=C1CCC(=O)N1C(c1ccccc1)(c1ccccc1)c1ccccc1	> 200 µM	> 200 µM	–
COC(=O)c1c2c(n(CCO)c1OC)C(=O)c1ccccc1C2=O	> 200 µM	81.3 µM	–
COc1ccc2c(c1)CCC1=C/C(=N\NC(N)=O)CCC12C (stereo not given)	> 63.1 µM	> 63.1 µM	–
COc1ccccc1/C=C1\SC(=S)NC1=O	> 200 µM	107 µM	–
C[C@]12CC[C@H](O)CC1=CC[C@@H]1[C@@H]2CC[C@]2(C)C(=O)CC[C@@H]12	> 126 µM	83.2 µM	–
COc1ccc(/C=C2\CCC(C)C3=C2NC(=S)NC3c2ccc(OC)c(OC)c2)cc1OC (stereo not given)	> 200 µM	11.2 µM	–
CC(=O)NC(CS/N=N/c1nc[nH]c1C(N)=O)C(=O)O (stereo not given)	> 200 µM	0.38 µM	–
CNC(=O)CNC(=O)C(Cc1ccc(NC(=O)CCCCC(C)=O)cc1)NC(=O)C(CCC(=O)OCc1ccccc1)NC(=O)OC(C)(C)C (stereo not given)	> 200 µM	> 200 µM	–
N#C/C=C(/NC(=O)Nc1ccccc1)N1CCCC1	> 200 µM	> 200 µM	–
COC(=O)C1CC2c3c(c4ccccc4n3C)CC(C1=O)N2C (stereo not given)	–	–	inactive
O=C(NNC(=O)c1ccccc1O)c1ccccc1O	> 0.2 µM	0.102 µM	–
O=C1NC(=S)N/C1=C\c1ccccc1	> 200 µM	178 µM	–
O=C1OC(c2ccccc2)=N/C1=C\c1c(O)cc(O)cc1O	> 87.1 µM	> 87.1 µM	–
CC(c1ccccc1)N1CC(C)(c2ccccc2)N(O)C(c2ccccc2)C1C (stereo not given)	> 18.6 µM	> 18.6 µM	–
CC[C@@]1(OC(=O)CCC(=O)O)C(=O)OCc2c1cc1n(c2=O)Cc2cc3ccccc3nc2-1	> 10 µM	0.00708 µM	–
COc1ccc(C2OC(c3ccncc3)=NN2C)cc1F (stereo not given)	> 200 µM	> 100 µM	–
O=NN1CCN=C1c1ccc([N+](=O)[O-])cc1	> 112 µM	33.9 µM	–
CN(O)C(=O)c1ccccc1	> 1660 µM	1380 µM	–
c1ccc2c(c1)NC(C1OC3CCCN3C1C1Nc3ccccc3S1)S2 (stereo not given)	> 200 µM	107 µM	–
COc1ccc(C2C(=O)C(Cl)N2Nc2nc(C)cc(=O)[nH]2)cc1OC (stereo not given)	> 186 µM	20.4 µM	–
O=C1N=C(c2ccccc2)O/C1=C\c1ccccc1	> 200 µM	> 200 µM	–
Cn1cnc([N+](=O)[O-])c1Sc1nccn1-c1cccc2ccccc12	> 102 µM	13.2 µM	–
N/C(CCCC/C(N)=N/O)=N\O	> 200 µM	> 200 µM	–

Structure (SMILES)	EC50	IC50	outcome
COc1ccc2c(C(=O)O)cc3cc(OC)c(OC)cc3c2c1	–	–	inactive
CSc1n[nH]c(N)c1C(=O)Nc1ccccc1	> 186 µM	117 µM	–
CSc1nc(Cl)c2c(n1)Sc1nc3ccccc3n1C2O (stereo not given)	> 200 µM	6.31 µM	–
Cc1ccc2c(c1C)C(=O)C1(C2)Cc2ccc3c(c2C1=O)CCC3 (stereo not given)	> 100 µM	> 100 µM	–
CCOC(=O)CSc1nnc(C(Sc2nc(-c3ccccc3)c(-c3ccccc3)[nH]2)C(C)C)n1-c1ccccc1 (stereo not given)	> 24 µM	> 24 µM	–
C[Si](C)(C)C1(Sc2ccccc2)SCCCS1	–	–	inactive
CCCCCCC(CC)(C(=O)O)C(=O)O	> 437 µM	> 437 µM	–
O=c1cc(NNc2ccccc2)[nH]c(=O)[nH]1	> 200 µM	1.02 µM	–
OC1(c2ccccc2)c2ccccc2NC2=NCCN21 (stereo not given)	> 200 µM	110 µM	–
CC1CC2C(=O)N(c3ccccc3)C(=O)C2c2c1c1ccccc1n2Cc1ccccc1 (stereo not given)	–	–	inactive
O=c1[nH]c(=O)n(C2OC(CO)C(O)C2O)cc1NN=NCc1ccccc1 (stereo not given)	> 182 µM	> 182 µM	–
Cc1ccc(-c2n[nH]c(=O)n2N)cc1	> 200 µM	> 200 µM	–
CC(C)(C)C(=O)/C=C/c1ccc(Br)cc1	–	–	inactive
Cn1c(=O)c2/c(n(C)c1=O)=N\C=c1\c(=O)n(C)c(=O)n(C)\c1=N\C=2	> 182 µM	> 182 µM	–
CC1(O)N2CCCC1(c1ccccc1)CC2 (stereo not given)	> 1150 µM	178 µM	–
COc1cc(C2c3cc4c(cc3OC(N3CCOCC3)C2C)OCO4)cc(OC)c1OC(C)=O (stereo not given)	> 200 µM	3.31 µM	–
O=C1c2c(O)ccc(O)c2C(=O)c2c(NCCNC(=O)C(O)C(O)C(O)C(O)CO)ccc(NCCNC(=O)C(O)C(O)C(O)C(O)CO)c21 (stereo not given)	> 100 µM	0.0316 µM	–
Cc1cc(C)c2c(c1)CC2(Cl)Cl	> 178 µM	> 178 µM	–
COc1ccc(NC(=O)CC(=O)N2N=C(N(CCC#N)c3ccccc3Cl)CC2c2ccccc2)cc1 (stereo not given)	> 50.1 µM	> 50.1 µM	–
O=C(/C=C/c1c(O)ccc2ccccc12)c1cccc2ccccc12	> 162 µM	112 µM	–
CCOC(=O)C(O)(NC(=O)c1ccccc1F)C(F)(F)F (stereo not given)	–	–	inactive
